Experiments:
[1] = test system: SKBr3 (estrogen receptor negative, HER2 over-expressing breast cancer cells); assay: Anti-proliferation assay (MTS/PMS, 72 h), SKBr3; assay type: cell-based; details: Homo sapiens
Method in brief: (§1)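 Cells seeded at 2000/well, attached overnight, then exposed to compound at varying concentrations (1% DMSO final) for 72 h at 37° C, 5% CO2. Viability by MTS/PMS, normalised to 1% DMSO controls as 100% proliferation; IC50 from separate triplicate experiments.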

[2] = test system: MCF-7 (estrogen receptor positive breast cancer cells); assay: Anti-proliferation assay (MTS/PMS, 72 h), MCF-7; assay type: cell-based; details: Homo sapiens
Method in brief: as §1

[3] = SK-BR-3, Table 8, para-para biphenyl core with substituted biphenylamide group
[4] = MCF7, Table 8, para-para biphenyl core with substituted biphenylamide group
[5] = SK-BR-3, Table 3, substituted para-para biphenyl core
[6] = MCF7, Table 3, substituted para-para biphenyl core
[7] = SK-BR-3, Table 2, para-meta biphenyl core with substituted benzylamide
[8] = MCF7, Table 2, para-meta biphenyl core with substituted benzylamide
[9] = SK-BR-3, Table 1, ortho, meta and para biphenyl cores
[10] = MCF7, Table 1, ortho, meta and para biphenyl cores
[11] = SK-BR-3, Table 6, para-para biphenyl core with substituted benzylamide
[12] = MCF7, Table 6, para-para biphenyl core with substituted benzylamide

COc1ccc(C(=O)Nc2ccc(-c3ccc(OC4CCN(C)CC4)cc3)cc2)cc1-c1ccc(Cl)cc1 [Compound 49g, 4′-chloro-6-methoxy-N-(4′-((1-methylpiperidin-4-yl)oxy)-[1,1′-biphenyl]-4-yl)-[1,1′-biphenyl]-3-carboxamide] gave an IC50 [1, 3] of 1060 ± 50 nM and an IC50 [2, 4] of 820 ± 130 nM.

COc1cccc(-c2cc(C(=O)Nc3ccc(-c4ccc(OC5CCN(C)CC5)cc4Cl)cc3)ccc2OC)c1 [Compound 29j, N-(2′-chloro-4′-((1-methylpiperidin-4-yl)oxy)-[1,1′-biphenyl]-4-yl)-3′,6-dimethoxy-[1,1′-biphenyl]-3-carboxamide] showed an IC50 [1, 5] of 3680 nM and an IC50 [2, 6] of 3120 nM.

For CN1CCC(Oc2ccc(-c3cccc(NC(=O)c4ccccc4)c3)cc2)CC1 [Compound 6b, N-(4′-((1-methylpiperidin-4-yl)oxy)-[1,1′-biphenyl]-3-yl)benzamide], the IC50 [1, 7] was 18900 ± 950 nM and the IC50 [2, 8] was 12000 ± 570 nM.

COc1ccc(C(=O)Nc2ccc(-c3ccc(OC4CCN(C)CC4)cc3)cc2)cc1-c1cccc(N)c1 [Compound 50c, 3′-amino-6-methoxy-N-(4′-((1-methylpiperidin-4-yl)oxy)-[1,1′-biphenyl]-4-yl)-[1,1′-biphenyl]-3-carboxamide] gave an IC50 [1, 3] of 1520 ± 550 nM and an IC50 [2, 4] of 1670 ± 680 nM.

COc1cccc(-c2cc(C(=O)Nc3ccc(-c4ccc(OC5CCN(C)CC5)c(NC(C)=O)c4)cc3)ccc2OC)c1 [Compound 39a, N-(3′-acetamido-4′-((1-methylpiperidin-4-yl)oxy)-[1,1′-biphenyl]-4-yl)-3′,6-dimethoxy-[1,1′-biphenyl]-3-carboxamide] was tested, and the IC50 [1, 5] was 2660 ± 760 nM and the IC50 [2, 6] was 1840 ± 430 nM.

In the case of CN1CCC(Oc2cccc(-c3cccc(NC(=O)c4ccc(Cl)cc4)c3)c2)CC1 [Compound 61g, 4-chloro-N-(3′-((1-methylpiperidin-4-yl)oxy)-[1,1′-biphenyl]-3-yl)benzamide], the IC50 [1, 9] is reported as 4150 ± 960 nM and the IC50 [2, 10] is reported as 4890 ± 80 nM.

CN1CCC(Oc2ccc(-c3ccc(NC(=O)c4ccc(-c5ccccc5)cc4)cc3)cc2)CC1 [Compound 41s, N-(4′-((1-methylpiperidin-4-yl)oxy)-[1,1′-biphenyl]-4-yl)-[1,1′-biphenyl]-4-carboxamide] showed an IC50 [1, 11] of 4590 ± 60 nM and an IC50 [2, 12] of 4440 ± 600 nM.

With CN1CCC(Oc2ccc(-c3cccc(NC(=O)c4ccc(Cl)cc4Cl)c3)cc2)CC1 [Compound 6n, 2,4-Dichloro-N-(4′-((1-methylpiperidin-4-yl)oxy)-[1,1′-biphenyl]-3-yl)benzamide] the IC50 [1, 7] was 5910 ± 150 nM and the IC50 [2, 8] was 3930 ± 470 nM.

Molecule COc1ccc(C(=O)Nc2ccc(-c3ccc(OC4CCN(C)CC4)cc3)cc2)cc1-c1cccc(OC(C)=O)c1 [Compound 49d, 2′-methoxy-5′-((4′-((1-methylpiperidin-4-yl)oxy)-[1,1′-biphenyl]-4-yl)carbamoyl)-[1,1′-biphenyl]-3-yl acetate] has an IC50 [1, 3] of 270 ± 50 nM and an IC50 [2, 4] of 620 ± 70 nM.

Molecule CN1CCC(Oc2ccc(-c3cccc(NC(=O)c4ccc(C(C)(C)C)cc4)c3)cc2)CC1 [Compound 6e, 4-(tert-butyl)-N-(4′-((1-methylpiperidin-4-yl)oxy)-[1,1′-biphenyl]-3-yl)benzamide] has an IC50 [1, 9] of 1510 ± 310 nM, an IC50 [1, 7] of 1510 ± 310 nM and an IC50 [2, 10] of 3450 ± 20 nM. For the same molecule, the IC50 [2, 8] was 3450 ± 20 nM.

COc1cccc(-c2cc(C(=O)Nc3ccc(-c4ccc(OC5CCN(C)CC5)cc4)cc3C)ccc2OC)c1 [Compound 29d, 3′,6-dimethoxy-N-(3-methyl-4′-((1-methylpiperidin-4-yl)oxy)-[1,1′-biphenyl]-4-yl)-[1,1′-biphenyl]-3-carboxamide] gave an IC50 [1, 5] of 2470 ± 390 nM and an IC50 [2, 6] of 1430 ± 350 nM.

CC(=O)Oc1ccc(C(=O)Nc2ccc(-c3ccc(OC4CCN(C)CC4)cc3)cc2)cc1CC=C(C)C [Compound 61j, 2-(3-methylbut-2-en-1-yl)-4-((4′-((1-methylpiperidin-4-yl)oxy)-[1,1′-biphenyl]-4-yl)carbamoyl)phenyl acetate] gave an IC50 [1, 9] of 1820 ± 210 nM and an IC50 [2, 10] of 1370 ± 180 nM.

Work on CN1CCC(Oc2ccc(-c3ccc(NC(=O)c4ccccc4-c4ccccc4)cc3)cc2)CC1 [Compound 41q, N-(4′-((1-methylpiperidin-4-yl)oxy)-[1,1′-biphenyl]-4-yl)-[1,1′-biphenyl]-2-carboxamide] yielded an IC50 [1, 11] of 6260 ± 1540 nM and an IC50 [2, 12] of 6670 ± 830 nM.

For COc1cccc(-c2cc(C(=O)Nc3ccc(-c4ccc(OC5CCN(C)CC5)cc4N)cc3)ccc2OC)c1 [Compound 38b, N-(2′-amino-4′-((1-methylpiperidin-4-yl)oxy)-[1,1′-biphenyl]-4-yl)-3′,6-dimethoxy-[1,1′-biphenyl]-3-carboxamide], the IC50 [1, 5] was 2130 ± 60 nM and the IC50 [2, 6] was 1760 ± 370 nM.

COc1cccc(-c2cc(C(=O)Nc3ccc(-c4ccc(OC5CC6CCC(C5)N6C)cc4)cc3)ccc2OC)c1 [Compound 56b, 3′,6-dimethoxy-N-(4′-(((1R,3s,5S)-8-methyl-8-azabicyclo[3.2.1]octan-3-yl)oxy)-[1,1′-biphenyl]-4-yl)-[1,1′-biphenyl]-3-carboxamide] gave an IC50 ([1]; SK-BR-3, Table 7, para-para biphenyl core with modified ether groups) of 1670 ± 600 nM and an IC50 ([2]; MCF7, Table 7, para-para biphenyl core with modified ether groups) of 1320 ± 230 nM.

Molecule COc1ccc(C(=O)Nc2ccc(-c3ccc(OC4CCN(C)CC4)cc3)cc2)cc1-c1cccc(O)c1 [Compound 50a, 3′-hydroxy-6-methoxy-N-(4′-((1-methylpiperidin-4-yl)oxy)-[1,1′-biphenyl]-4-yl)-[1,1′-biphenyl]-3-carboxamide] has an IC50 [1, 3] of 1560 ± 350 nM and an IC50 [2, 4] of 1080 ± 340 nM.

Cc1ccc(C(=O)Nc2cccc(-c3ccc(OC4CCN(C)CC4)cc3)c2)cc1 [Compound 6c, 4-methyl-N-(4′-((1-methylpiperidin-4-yl)oxy)-[1,1′-biphenyl]-3-yl)benzamide] was tested, and the IC50 [1, 7] was 5270 nM and the IC50 [2, 8] was 3920 ± 130 nM.

For COc1cccc(-c2cc(C(=O)Nc3ccc(-c4ccc(OC5CCN(C)CC5)cc4)c(NC(C)=O)c3)ccc2OC)c1 [Compound 39c, N-(2-acetamido-4′-((1-methylpiperidin-4-yl)oxy)-[1,1′-biphenyl]-4-yl)-3′,6-dimethoxy-[1,1′-biphenyl]-3-carboxamide], the IC50 [1, 5] was 2520 ± 260 nM and the IC50 [2, 6] was 4660 ± 490 nM.

Work on COc1ccc(C(=O)Nc2cccc(-c3cccc(OC4CCN(C)CC4)c3)c2)cc1 [Compound 61h, 4-methoxy-N-(3′-((1-methylpiperidin-4-yl)oxy)-[1,1′-biphenyl]-3-yl)benzamide] yielded an IC50 [1, 9] of 13200 ± 1970 nM and an IC50 [2, 10] of 8200 nM.

In the case of CN1CCC(Oc2ccc(-c3cccc(NC(=O)c4ccccc4Cl)c3)cc2)CC1 [Compound 6k, 2-Chloro-N-(4′-((1-methylpiperidin-4-yl)oxy)-[1,1′-biphenyl]-3-yl)benzamide], the IC50 [1, 7] is reported as 7870 ± 480 nM and the IC50 [2, 8] is reported as 5170 ± 490 nM.

With COc1cccc(-c2cc(NC(=O)Nc3ccc(-c4ccc(OC5CCN(C)CC5)cc4)cc3)ccc2OC)c1 [Compound 52, 1-(3′,6-dimethoxy-[1,1′-biphenyl]-3-yl)-3-(4′-((1-methylpiperidin-4-yl)oxy)-[1,1′-biphenyl]-4-yl)urea] the IC50 ([1]; SK-BR-3, Table 5, modified linkers in para-para biphenyl core) was 910 ± 80 nM and the IC50 ([2]; MCF7, Table 5, modified linkers in para-para biphenyl core) was 1260 ± 130 nM.

CN1CCC(Oc2ccc(-c3ccc(NC(=O)c4ccc(Cl)cc4)cc3)cc2)CC1 [Compound 41b, 4-chloro-N-(4′-((1-methylpiperidin-4-yl)oxy)-[1,1′-biphenyl]-4-yl)benzamide] was tested, and the IC50 [1, 9] was 570 ± 10 nM, the IC50 [1, 11] was 570 ± 10 nM and the IC50 [2, 10] was 520 ± 30 nM. It also gave an IC50 [2, 12] of 520 ± 30 nM.

COc1cccc(-c2cc(C(=O)Nc3ccc(-c4ccc(OC5CCN(C)CC5)cc4)cc3)ccc2O)c1 [Compound 49j] gave an IC50 [1, 3] of 2780 ± 350 nM and an IC50 [2, 4] of 2710 ± 450 nM.

Molecule CC(=O)Oc1ccc(C(=O)Nc2cccc(-c3cccc(OC4CCN(C)CC4)c3)c2)cc1CC=C(C)C [Compound 61f, 2-(3-methylbut-2-en-1-yl)-4-((3′-((1-methylpiperidin-4-yl)oxy)-[1,1′-biphenyl]-3-yl)carbamoyl)phenyl acetate] has an IC50 [1, 9] of 1760 ± 160 nM and an IC50 [2, 10] of 1700 ± 210 nM.

CN1CCC(Oc2ccc(-c3ccc(NC(=O)c4cc(Cl)cc(Cl)c4)cc3)cc2)CC1 [Compound 41o, 3,5-dichloro-N-(4′-((1-methylpiperidin-4-yl)oxy)-[1,1′-biphenyl]-4-yl)benzamide] gave an IC50 [1, 11] of 810 ± 280 nM and an IC50 [2, 12] of 1680 ± 130 nM.

With COc1ccc(C(=O)Nc2ccc(-c3ccc(OC4CCN(C)CC4)cc3)cc2)cc1-c1cccc([N+](=O)[O-])c1 [Compound 49h, 6-methoxy-N-(4′-((1-methylpiperidin-4-yl)oxy)-[1,1′-biphenyl]-4-yl)-3′-nitro-[1,1′-biphenyl]-3-carboxamide] the IC50 [1, 3] was 400 ± 70 nM and the IC50 [2, 4] was 1090 ± 280 nM.

For CN1CCC(Oc2ccc(-c3ccc(NC(=O)c4ccc5ncccc5c4)cc3)cc2)CC1 [Compound 45b, N-(4′-((1-methylpiperidin-4-yl)oxy)-[1,1′-biphenyl]-4-yl)quinoline-6-carboxamide], the IC50 [1, 11] was 1310 ± 180 nM and the IC50 [2, 12] was 2070 ± 160 nM.

Molecule COc1cccc(-c2cc(C(=O)Nc3ccc(-c4ccc(OC5CCN(C)CC5)cc4)cn3)ccc2OC)c1 [Compound 19d, 3′,6-dimethoxy-N-(5-(4-((1-methylpiperidin-4-yl)oxy)phenyl)pyridin-2-yl)-[1,1′-biphenyl]-3-carboxamide] has an IC50 ([1]; SK-BR-3, Table 4, para-para heteroatom substituted biphenyl core) of 1070 ± 10 nM and an IC50 ([2]; MCF7, Table 4, para-para heteroatom substituted biphenyl core) of 1020 ± 10 nM.

COc1cccc(-c2cc(C(=O)Nc3ccc(-c4ccc(OC5CCN(C)CC5)cc4C)cc3)ccc2OC)c1 [Compound 29b, 3′,6-dimethoxy-N-(2′-methyl-4′-((1-methylpiperidin-4-yl)oxy)-[1,1′-biphenyl]-4-yl)-[1,1′-biphenyl]-3-carboxamide] was tested, and the IC50 [1, 5] was 1180 ± 110 nM and the IC50 [2, 6] was 1210 ± 30 nM.

Source: US10689344B2, “Biphenylamide derivative Hsp90 inhibitors” (University of Kansas, priority 2013, dated 2020)
